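Interpolation was linear, between the two tested concentrations surrounding the appropriate level; five concentrations were tested over 48 hours in 96-well plates. GI50 = concentration required for 50% inhibition of growth.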 Calls of active or inactive are those of the source. Cut-off read from the data, not from the text of the source: active = GI50 up to about 1.1 µM and inactive = higher.
What was measured:
Assay in all cases: NCI anticancer screen, dose series, 48 h
786-0 = system: 786-0
A498 = system: A498
A549 = system: A549
ACHN = system: ACHN
BT-549 = system: BT-549
CAKI-1 = system: CAKI-1
CCRF-CEM = system: CCRF-CEM
COLO 205 = system: COLO 205
DU-145 = system: DU-145
EKVX = system: EKVX
HCC 2998 = system: HCC 2998
HCT-116 = system: HCT-116
HCT-15 = system: HCT-15
HL-60 = system: HL-60
HOP-62 = system: HOP-62
HOP-92 = system: HOP-92
HT-29 = system: HT-29
Hs-578T = system: Hs-578T
IGROV-1 = system: IGROV-1
K562 = system: K562
KM12 = system: KM12
LOX IMVI = system: LOX IMVI
M14 = system: M14
MCF7 = system: MCF7
MDA-MB-231 = system: MDA-MB-231
MDA-MB-435 = system: MDA-MB-435
MDA-N = system: MDA-N
MOLT-4 = system: MOLT-4
Malme-3M = system: Malme-3M
NCI-H226 = system: NCI-H226
NCI-H23 = system: NCI-H23
NCI-H460 = system: NCI-H460
NCI-H522 = system: NCI-H522
NCI/ADR-RES = system: NCI/ADR-RES
OVCAR-3 = system: OVCAR-3
OVCAR-4 = system: OVCAR-4
OVCAR-5 = system: OVCAR-5
OVCAR-8 = system: OVCAR-8
PC-3 = system: PC-3
RPMI-8226 = system: RPMI-8226
RXF 393 = system: RXF 393
SF-268 = system: SF-268
SF-295 = system: SF-295
SF-539 = system: SF-539
SK-MEL-28 = system: SK-MEL-28
SK-MEL-2 = system: SK-MEL-2
SK-MEL-5 = system: SK-MEL-5
SK-OV-3 = system: SK-OV-3
SN12C = system: SN12C
SNB-19 = system: SNB-19
SNB-75 = system: SNB-75
SW-620 = system: SW-620
T47D = system: T47D
TK-10 = system: TK-10
U-251 = system: U-251
UACC-257 = system: UACC-257
UACC-62 = system: UACC-62
UO-31 = system: UO-31
SR = system: SR

With `Brc1ccc(/N=C/C=C(\Nc2ccc(Br)cc2)C23CC4CC(CC(C4)C2)C3)cc1` the GI50 (786-0) was 13.9 µM (inactive), the GI50 (A498) was 14.1 µM (inactive) and the GI50 (A549) was 22.5 µM (inactive). For the same molecule, the GI50 (ACHN) was 11.1 µM (inactive), the GI50 (BT-549) was 15.7 µM (inactive) and the GI50 (CAKI-1) was 11.4 µM (inactive). The GI50 (CCRF-CEM) was 1.63 µM (inactive), the GI50 (COLO 205) was 9.62 µM (inactive) and the GI50 (DU-145) was 14.5 µM (inactive). The GI50 (EKVX) was 18.8 µM (inactive), the GI50 (HCC 2998) was 16 µM (inactive) and the GI50 (HCT-116) was 9.04 µM (inactive). For the same molecule, the GI50 (HCT-15) was 6.34 µM, the GI50 (HL-60) was 2.95 µM (inactive) and the GI50 (HOP-62) was 19.1 µM (inactive). The GI50 (HOP-92) was 13.6 µM (inactive), the GI50 (HT-29) was 18 µM (inactive) and the GI50 (Hs-578T) was 27.4 µM (inactive). For the same molecule, the GI50 (IGROV-1) was 11.3 µM (inactive), the GI50 (K562) was 4.5 µM (inactive) and the GI50 (KM12) was 12.7 µM (inactive). For the same molecule, the GI50 (LOX IMVI) was 1.91 µM (inactive), the GI50 (M14) was 9.75 µM (inactive) and the GI50 (MCF7) was 11 µM (inactive). The GI50 (MDA-MB-231) was 15.6 µM (inactive), the GI50 (MDA-MB-435) was 5.11 µM (inactive) and the GI50 (MDA-N) was 12.4 µM (inactive). For the same molecule, the GI50 (MOLT-4) was 6.07 µM (inactive), the GI50 (Malme-3M) was 19.1 µM (inactive) and the GI50 (NCI-H226) was 97.3 µM (inactive). For the same molecule, the GI50 (NCI-H23) was 16.9 µM (inactive), the GI50 (NCI-H460) was 6.12 µM (inactive) and the GI50 (NCI-H522) was 10.9 µM (inactive). The GI50 (NCI/ADR-RES) was 20 µM (inactive), the GI50 (OVCAR-3) was 14.1 µM (inactive) and the GI50 (OVCAR-4) was 12.7 µM (inactive). For the same molecule, the GI50 (OVCAR-5) was 14.7 µM (inactive), the GI50 (OVCAR-8) was 19.4 µM (inactive) and the GI50 (PC-3) was 16.1 µM (inactive). For the same molecule, the GI50 (RPMI-8226) was 14.7 µM (inactive), the GI50 (RXF 393) was 14.7 µM (inactive) and the GI50 (SF-268) was 10.2 µM (inactive). For the same molecule, the GI50 (SF-295) was 10 µM (inactive), the GI50 (SF-539) was 20 µM (inactive) and the GI50 (SK-MEL-28) was 18.5 µM (inactive). For the same molecule, the GI50 (SK-MEL-2) was 8.73 µM (inactive), the GI50 (SK-MEL-5) was 9.33 µM (inactive) and the GI50 (SK-OV-3) was 18.6 µM (inactive). The GI50 (SN12C) was 20.6 µM (inactive), the GI50 (SNB-19) was 29.6 µM (inactive) and the GI50 (SNB-75) was 17 µM (inactive). For the same molecule, the GI50 (SW-620) was 18.1 µM (inactive), the GI50 (T47D) was 8.07 µM (inactive) and the GI50 (TK-10) was 14.8 µM (inactive). For the same molecule, the GI50 (U-251) was 14.4 µM (inactive), the GI50 (UACC-257) was 16.6 µM (inactive) and the GI50 (UACC-62) was 1.17 µM (inactive). For the same molecule, the GI50 (UO-31) was 17.7 µM (inactive).
For `CS(=O)(=O)OCC1OC(n2ccc(NC(=O)c3ccccc3)nc2=O)CC1OS(C)(=O)=O` (configuration not stated), the GI50 (786-0) was > 100 µM (inactive), the GI50 (A498) was > 100 µM (inactive) and the GI50 (A549) was > 100 µM (inactive). For the same molecule, the GI50 (ACHN) was > 100 µM (inactive), the GI50 (BT-549) was > 100 µM (inactive) and the GI50 (CAKI-1) was > 100 µM (inactive). For the same molecule, the GI50 (CCRF-CEM) was > 100 µM (inactive), the GI50 (COLO 205) was > 100 µM (inactive) and the GI50 (DU-145) was > 100 µM (inactive). For the same molecule, the GI50 (EKVX) was > 100 µM (inactive), the GI50 (HCT-116) was > 100 µM (inactive) and the GI50 (HCT-15) was > 100 µM. For the same molecule, the GI50 (HL-60) was > 100 µM (inactive), the GI50 (HOP-62) was > 100 µM (inactive) and the GI50 (HT-29) was > 100 µM (inactive). For the same molecule, the GI50 (Hs-578T) was > 100 µM (inactive), the GI50 (IGROV-1) was > 100 µM (inactive) and the GI50 (K562) was > 100 µM (inactive). The GI50 (KM12) was > 100 µM (inactive), the GI50 (LOX IMVI) was > 100 µM (inactive) and the GI50 (M14) was > 100 µM (inactive). The GI50 (MCF7) was > 100 µM (inactive), the GI50 (MDA-MB-231) was > 100 µM (inactive) and the GI50 (MDA-MB-435) was > 100 µM (inactive). The GI50 (MDA-N) was > 100 µM (inactive), the GI50 (MOLT-4) was > 100 µM (inactive) and the GI50 (NCI-H226) was > 100 µM (inactive). The GI50 (NCI-H23) was > 100 µM (inactive), the GI50 (NCI-H460) was > 100 µM (inactive) and the GI50 (NCI-H522) was > 100 µM (inactive). The GI50 (NCI/ADR-RES) was > 100 µM (inactive), the GI50 (OVCAR-3) was > 100 µM (inactive) and the GI50 (OVCAR-4) was > 100 µM (inactive). The GI50 (OVCAR-5) was > 100 µM (inactive), the GI50 (OVCAR-8) was > 100 µM (inactive) and the GI50 (PC-3) was > 100 µM (inactive). For the same molecule, the GI50 (RPMI-8226) was > 100 µM (inactive), the GI50 (SF-268) was > 100 µM (inactive) and the GI50 (SF-295) was > 100 µM (inactive). For the same molecule, the GI50 (SF-539) was > 100 µM (inactive), the GI50 (SK-MEL-28) was > 100 µM (inactive) and the GI50 (SK-MEL-2) was > 100 µM (inactive). The GI50 (SK-MEL-5) was > 100 µM (inactive), the GI50 (SK-OV-3) was > 100 µM (inactive) and the GI50 (SN12C) was > 100 µM (inactive). For the same molecule, the GI50 (SNB-19) was > 100 µM (inactive), the GI50 (SNB-75) was > 100 µM (inactive) and the GI50 (SR) was > 100 µM (inactive). The GI50 (SW-620) was > 100 µM (inactive), the GI50 (T47D) was > 100 µM (inactive) and the GI50 (TK-10) was > 100 µM (inactive). For the same molecule, the GI50 (U-251) was > 100 µM (inactive), the GI50 (UACC-257) was > 100 µM (inactive) and the GI50 (UACC-62) was > 100 µM (inactive). For the same molecule, the GI50 (UO-31) was > 10 µM (inactive).
In the case of `OCC1c2ccccc2-n2nc(-c3ccccc3)c(O)c21` (configuration not stated), the GI50 (786-0) is reported as 18.2 µM (inactive), the GI50 (A549) is reported as 44.2 µM (inactive) and the GI50 (ACHN) is reported as 16.8 µM (inactive). For the same molecule, the GI50 (BT-549) was 20 µM (inactive), the GI50 (CAKI-1) was 17.8 µM (inactive) and the GI50 (CCRF-CEM) was 28.6 µM (inactive). For the same molecule, the GI50 (COLO 205) was 13.5 µM (inactive), the GI50 (DU-145) was 68.5 µM (inactive) and the GI50 (EKVX) was 29.2 µM (inactive). For the same molecule, the GI50 (HCC 2998) was 16.3 µM (inactive), the GI50 (HCT-116) was > 10 µM (inactive) and the GI50 (HCT-15) was 14.9 µM. For the same molecule, the GI50 (HOP-62) was 41.9 µM (inactive), the GI50 (HOP-92) was 16.9 µM (inactive) and the GI50 (HT-29) was 30.6 µM (inactive). For the same molecule, the GI50 (Hs-578T) was 42.2 µM (inactive), the GI50 (IGROV-1) was 36.2 µM (inactive) and the GI50 (K562) was 21.4 µM (inactive). The GI50 (KM12) was 18.4 µM (inactive), the GI50 (LOX IMVI) was 20.7 µM (inactive) and the GI50 (MCF7) was 14.4 µM (inactive). For the same molecule, the GI50 (MDA-MB-231) was 29.2 µM (inactive), the GI50 (MDA-MB-435) was 26.2 µM (inactive) and the GI50 (MDA-N) was 46.1 µM (inactive). For the same molecule, the GI50 (MOLT-4) was 31 µM (inactive), the GI50 (Malme-3M) was 17.1 µM (inactive) and the GI50 (NCI-H226) was 79.4 µM (inactive). For the same molecule, the GI50 (NCI-H23) was 54.7 µM (inactive), the GI50 (NCI-H460) was 29.9 µM (inactive) and the GI50 (NCI-H522) was 22.1 µM (inactive). The GI50 (NCI/ADR-RES) was 18.6 µM (inactive), the GI50 (OVCAR-3) was 26.7 µM (inactive) and the GI50 (OVCAR-4) was 26.9 µM (inactive). For the same molecule, the GI50 (OVCAR-5) was > 100 µM (inactive), the GI50 (OVCAR-8) was 18.5 µM (inactive) and the GI50 (PC-3) was 17.6 µM (inactive). The GI50 (RXF 393) was 17.7 µM (inactive), the GI50 (SF-268) was 36.9 µM (inactive) and the GI50 (SF-295) was 38.5 µM (inactive). The GI50 (SF-539) was 43.1 µM (inactive), the GI50 (SK-MEL-28) was 58.1 µM (inactive) and the GI50 (SK-MEL-2) was 15.9 µM (inactive). For the same molecule, the GI50 (SK-MEL-5) was 33.3 µM (inactive), the GI50 (SK-OV-3) was 39.4 µM (inactive) and the GI50 (SN12C) was 17.6 µM (inactive). The GI50 (SNB-19) was 37.9 µM (inactive), the GI50 (SNB-75) was 68.9 µM (inactive) and the GI50 (SW-620) was 29.3 µM (inactive). For the same molecule, the GI50 (T47D) was 22.3 µM (inactive), the GI50 (TK-10) was 19.9 µM (inactive) and the GI50 (U-251) was 19.4 µM (inactive). The GI50 (UACC-257) was 47 µM (inactive), the GI50 (UACC-62) was 20.7 µM (inactive) and the GI50 (UO-31) was 22.8 µM (inactive).

Reference: ChEMBL document CHEMBL1201862, “PubChem BioAssay data set” (2004)
